Assay results taken from patent publication US10731197B2, “Methods for detecting or quantifying CTP and CTP synthase activity” (Assistance Publique-Hopitaux de Paris, priority 2015, dated 2020).

Test system: CTP synthase
Assay: Determination of CTP synthase Michaelis-Menten constants Km and Vmax (CTP formation kinetics from UTP, LC-MS/MS)
Assay type: biochemical, human
Details: initial UTP 0 to 6 mM
Protocol: The cell extracts may be obtained from cultured cells (primary cultures of cells, blasts or cell lines), from blood derived cells. Particularly, mononuclear cells (PBMCs, peripheral blood mononuclear cells) have been isolated from peripheral blood. The cells were washed with phosphate buffer 0.1 M KH2PO4, pH=7.4, and then collected in HEPES buffer 70 mM, pH=8.0, containing 10 mM NaF and protease inhibitors leupeptin and pepstatin to the concentration of 10 μg/mL. The cells were immediately placed in a bath of ethanol and dry ice, and then placed for at least 1 hour at −80° C. The cells were then centrifuged for 30 minutes at 10 000 g at 4° C. The supernatant, containing the cytosolic fraction, was collected and contained proteins were dosed. One to 10 µg of proteins, prepared as described above, were used for measuring CTP synthase activity in a reaction mixture containing 4 μM internal standard, 1.25 mM UTP, 1.25 mM ATP, 0.31 mM GTP, 12.5 mM glutamine, 1.25 mM phosphoenolpyruvate, 0.62 mM EDTA and 10 mM NaF in 15 μL complete HEPES buffer 70 mM, pH=8.0. Enzymatic reaction was carried out at 37° C. for 90 minutes and then, the reaction tubes were cooled on ice and the enzymatic reaction was stopped by adding 15 μL HCLO4 1 M. The reaction tubes were vortexed and centrifuged for 5 minutes at 12 000 g at 4° C. The supernatants were diluted with the aqueous mobile phase A and transferred to a 384-well plate. Analyses were performed using a Waters chromatographic UPLC system (Acquity™ UPLC) connected to a Waters TQD quadrupole mass spectrometer, operated in the electrospray positive ion mode with selected reaction monitoring (SRM). […] Waters HSS T3, 1.8 μm particle size, 2.1×100 mm column, which was maintained at 30° C. throughout the analysis. The flow rate was 0.5 mL/min. Mobile phase A was 5 mM dibutylamine acetate in water and mobile phase B, 5 mM dibutylamine acetate in acetonitrile. Three distinct mobile-phase gradients were used (see Tables 6a to 6c below). Then the enzymatic constants of Michaelis-Menten, Km and Vmax were determined by performing CTP formation kinetics during 90 minutes by using initial concentrations of UTP ranging from 0 to 6 mM. The values obtained for Vmax and Km were of the same order of magnitude as those previously published with radio-isotopic methods (FIG. 4).

Vmax (PBMCs activated, 90 minutes): 0.379 ± 0.091 nmol/min
Vmax (activated PBMC protein extracts, 90 min): 0.3789 ± 0.091 nmol/min
Vmax (resting PBMC protein extracts, 90 min): 0.083 ± 0.02 nmol/min
Vmax (resting cells, 90 minutes): 0.083 ± 0.02 nmol/min
Structure (SMILES): O=c1ccn([C@@H]2O[C@H](COP(=O)(O)OP(=O)(O)OP(=O)(O)O)[C@@H](O)[C@H]2O)c(=O)[nH]1 [UTP, uridine triphosphate]
